Measured values as given in the supplement of paper PMC10307832.

Columns and labels:
Experiment in all cases: relative viability (nuclei count vs DMSO), 5 days (fraction); higher = more cells survive
[1] = compound: CCC1=CN=CN=C1N2CCN(CC2)CC3=NC4=C(N3)C=C(C=C4)C(F)(F)F + Nc1nc2[nH]cc(CCc3ccc(C(=O)N[C@@H](CCC(=O)O)C(=O)O)cc3)c2c(=O)[nH]1 [Pemetrexed] (partner 0.2 µM)
Method in brief: (§1)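 Lung cancer cell lines in 1536-well plates were dosed by pin tool the day after seeding, either with one drug alone or with a fixed anchor-drug dose plus five library-drug doses (not always all listed) in √10 steps. After 5 days, cells were fixed and their nuclei stained in one step (final 0.05% Triton X-100, 1% formaldehyde, 1 ug/ml Hoechst), then counted on 4× images. Relative viability is the nuclei count in treated wells divided by that in vehicle wells. Values are medians of duplicate plates.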

[2] = compound: CCC1=CN=CN=C1N2CCN(CC2)CC3=NC4=C(N3)C=C(C=C4)C(F)(F)F + O=C(CCCCCCC(=O)Nc1ccccc1)NO [Vorinostat] (partner 1 µM)
Method in brief: as §1

[3] = compound: CCn1c(-c2nonc2N)nc2cnc(Oc3cccc(NC(=O)c4ccc(OCCN5CCOCC5)cc4)c3)cc21 + Cc1nc(Nc2ncc(C(=O)Nc3c(C)cccc3Cl)s2)cc(N2CCN(CCO)CC2)n1 [Dasatinib] (partner 0.075 µM)
Method in brief: as §1

Mirin + OSI-027 = compound: N=C1NC(=O)/C(=C/c2ccc(O)cc2)S1 [Mirin] + COc1cccc2cc(-c3nc([C@H]4CC[C@H](C(=O)O)CC4)n4ncnc(N)c34)[nH]c12 [OSI-027] (partner 0.5 µM)
Method in brief: as §1

UMC-11
relative viability ([1]; first compound 0.04 µM): 0.772 | relative viability ([1]; first compound 0.1265 µM): 0.767 | relative viability ([1]; first compound 0.4 µM): 0.83 | relative viability ([1]; first compound 1.265 µM): 0.761 | relative viability ([1]; first compound 4 µM): 0.724 | relative viability ([2]; first compound 0.04 µM): 0.357 | relative viability ([2]; first compound 0.1265 µM): 0.359 | relative viability ([2]; first compound 0.4 µM): 0.376 | relative viability ([2]; first compound 1.265 µM): 0.304 | relative viability ([2]; first compound 4 µM): 0.316 | relative viability ([3]; first compound 0.04 µM): 0.37 | relative viability ([3]; first compound 0.1265 µM): 0.415 | relative viability ([3]; first compound 0.4 µM): 0.337 | relative viability ([3]; first compound 1.265 µM): 0.214 | relative viability ([3]; first compound 4 µM): 0.182 | relative viability (Mirin + OSI-027; first compound 0.25 µM): 0.477 | relative viability (Mirin + OSI-027; first compound 0.7906 µM): 0.483 | relative viability (Mirin + OSI-027; first compound 2.5 µM): 0.461 | relative viability (Mirin + OSI-027; first compound 7.906 µM): 0.396 | relative viability (Mirin + OSI-027; first compound 25 µM): 0.293
